Target: T1, CKAP4 (Homo sapiens, UniProt Q07065)
T1 construct: directly in native proteomes; endogenous in cells; host or cells: MDA-MB-231
T1 sequence (Q07065 1-602): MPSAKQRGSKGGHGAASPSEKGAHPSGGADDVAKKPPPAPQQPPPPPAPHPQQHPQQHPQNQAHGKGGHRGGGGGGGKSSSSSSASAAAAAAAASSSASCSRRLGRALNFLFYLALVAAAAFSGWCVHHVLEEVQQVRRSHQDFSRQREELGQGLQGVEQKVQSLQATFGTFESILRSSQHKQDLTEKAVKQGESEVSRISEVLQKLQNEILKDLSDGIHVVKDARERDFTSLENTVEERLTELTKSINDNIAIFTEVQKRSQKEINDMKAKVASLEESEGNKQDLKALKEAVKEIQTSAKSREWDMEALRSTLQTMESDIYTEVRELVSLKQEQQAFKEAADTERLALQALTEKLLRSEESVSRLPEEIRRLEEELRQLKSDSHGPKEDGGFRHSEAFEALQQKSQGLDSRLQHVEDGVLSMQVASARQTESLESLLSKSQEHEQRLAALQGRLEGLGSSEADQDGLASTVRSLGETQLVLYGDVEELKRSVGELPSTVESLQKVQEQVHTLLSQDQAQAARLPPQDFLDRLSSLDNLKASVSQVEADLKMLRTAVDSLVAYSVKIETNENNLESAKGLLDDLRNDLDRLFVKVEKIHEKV
Test: competitive isoTOP-ABPP, MDA-MB-231 soluble proteome
Format: binding
Conditions: 100 μM LDE, 60 min; peptide SSSSSSASAAAAAAAASSSASC*SR

Compound	R value (isoTOP-ABPP ratio heavy/light) for IA-labeled cysteine of CKAP4
CCCCCC(O)/C=C/C=O (stereo not drawn) [4-HNE, 4-Hydroxynonenal]	7.73
CCCCCCCCCCCCC/C=C/C=O [2-HD, 2-trans-hexadecenal]	1.08
CCCCC/C=C/C=C1/C(=O)C=C[C@@H]1C/C=C\CCCC(=O)O [PGJ2, 15-deoxy-Δ12,14-prostaglandin J2]	3.33

From patent US10782295B2, “Cysteine-reactive ligand discovery in proteomes” (THE SCRIPPS RESEARCH INSTITUTE, priority 2013, dated 2020)
